Assay results reported in patent publication US20220071947A1, “PHARMACEUTICAL APPLICATION OF DIMYRICETIN-BASED DISELENIDE” (Shanghai Spark Pharmaceutical Co., Ltd., priority 2020, published 2022).
In brackets after ≈: the same amount, converted by molar mass. Like-named read-outs stand apart in the source and are kept apart here.

How the values were obtained:
[1] = test system: MGC80-3(MGC-803) human gastric cancer cells; assay: CCK-8 in vitro anti-tumor screening, human gastric cancer cells; assay type: cell-based; details: 24 h
Method: (§1) In vitro screening of the efficacy of dimyricetin-based diselenide on 7 different human tumor cells (HEP3B2.1.7, NCI-H460, CALU-3, SW480, SIHA, PC-3, MGC80-3) was performed. Using the CCK-8 detection method, 10 drug concentrations was designed, and each concentration was arranged in 3 re-holes. […], 24 h, 48 h, and 72 h, was selected according to dynamic microscopy. The positive drug was cisplatin. Cisplatin concentration gradient designed: 0 (i.e., the solvent control group), 1 μM, 5 μM, 10 μM, 20 μM, 40 μM, 60 μM, 80 μM, 100 μM, 135 μM. Dimyricetin-based diselenide drug concentration gradient designed: 0 (i.e., solvent control group), 1 μg/ml, 5 μg/ml, 25 μg/ml, 50 μg/ml, 75 μg/ml, 100 μg/ml, 125 μg/ml, 150 μg/ml, 200 μg/ml.
(§2) Step 1. Cell culture. […]
(§3) Step 3. […] Step 3-4, measuring the absorbance value: a microplate reader was used to measure the 450 nm absorbance value, and the inhibitory rate of the drug on the cells was calculated according to the formula. […]
(§4) Experimental group: the absorbance value of the cells and CCK-8 solution in the experimental group
(§5) Negative control: the absorbance value of control cells and CCK-8 solution
(§6) Blank control: absorbance value of medium and CCK-8 solution […]

[2] = test system: HEP3B2.1.7 human liver cancer cells; assay: CCK-8 in vitro anti-tumor screening, human liver cancer cells; assay type: cell-based; details: HEP3B cells
Method: as §1, §2, §3, §4, §5, §6

[3] = test system: SW480 primary colorectal cancer cells; assay: CCK-8 in vitro anti-tumor screening, primary colorectal cancer cells; assay type: cell-based, human
Method: as §1, §2, §3, §4, §5, §6

[4] = test system: Siha human cervical squamous cell carcinoma cells; assay: CCK-8 in vitro anti-tumor screening, human cervical squamous cell carcinoma cells; assay type: cell-based
Method: as §1, §2, §3, §4, §5, §6

[5] = test system: NCI-H460 human lung cancer cells (large cell lung cancer); assay: CCK-8 in vitro anti-tumor screening, human lung cancer cells (large cell lung cancer); assay type: cell-based
Method: as §1, §2, §3, §4, §5, §6

[6] = test system: PC-3 human prostate cancer cells; assay: CCK-8 in vitro anti-tumor screening, human prostate cancer cells; assay type: cell-based; details: pc-3 cells
Method: as §1, §2, §3, §4, §5, §6

[7] = test system: Calu-3 human lung adenocarcinoma cells (pleural effusion); assay: CCK-8 in vitro anti-tumor screening, human lung adenocarcinoma cells (pleural effusion); assay type: cell-based; details: calu-3 cells, 24 h
Method: as §1, §2, §3, §4, §5, §6

2019-nCoV-M^pro protease = 2019-nCoV-M^pro protease (Severe acute respiratory syndrome coronavirus 2, UniProt P0DTD1); assay: M^pro protease activity inhibition, fluorescence resonance energy transfer method; assay type: biochemical; details: 30 nM protease, 20 μM substrate, 10 min preincubation at 30° C.
Excerpt: This example was the detection of M^pro protease activity inhibition of the targeted 2019-nCoV virus.
The mechanism is: after the new coronavirus invades the cell, it will use the host cell to synthesize two ultra-long replicase polypeptides (pp1a and pp1ab) necessary for self-replication. The replicase polypeptide needs to be further cut into multiple proteins (such as RdRp, helicase, etc.), and then assembled into the replication and transcription machinery required for the virus to initiate the replication of its own genetic material. M^pro has at least 11 cleavage sites on the replicase polypeptide. […]
The fluorescence resonance energy transfer method was used to evaluate the inhibitory activity of dimyricetin-based diselenide on 2019-nCoV-M^pro protease.
Specific detection method: the volume of the entire enzymatic reaction system is 120 μL, the final concentration of protease is 30 nM, and the final concentration of substrate is 20 μM. […] The substrate was added and quickly placed in the microplate reader for reading. […] The test time is 10 min, and the fluorescence value is read every 30 seconds. The final result is the first 2 minutes reading to fit the reaction rate, and compared with the control group (DMSO) to calculate the inhibition rate.

Row | SMILES | IC50 ([1]; MGC803 cells) | IC50 ([2]; 48 h) | IC50 ([3]; 48 h) | IC50 ([4]; 48 h) | IC50 ([5]; 48 h) | IC50 ([6]; 48 h) | IC50 ([1]; Homo sapiens, MGC-803, MGC803 cells) | IC50 ([2]; Homo sapiens, 24 h) | IC50 ([3]; Homo sapiens, 24 h) | IC50 ([4]; Homo sapiens, 24 h) | IC50 ([5]; Homo sapiens, NCI-H460, 24 h) | IC50 ([6]; Homo sapiens, 24 h) | IC50 [7] | IC50 (2019-nCoV-M^pro protease; read-out: IC50) | IC50 (2019-nCoV-M^pro protease; read-out: IC50 (μg/ml) (converted))
1 | N.N.[Cl][Pt][Cl] [Cisplatin, cisplatin, reference compound] | 23.2 µM | 8.83 µM | 46.7 µM | 65.5 µM | 47.4 µM | 45.7 µM | – | – | – | – | – | – | – | – | –
2 | O=c1c(O)c(-c2cc(O)c(O)c(O)c2)oc2c([Se][Se]c3c(O)cc(O)c4c(=O)c(O)c(-c5cc(O)c(O)c(O)c5)oc34)c(O)cc(O)c12 [Dimyricetin-based diselenide, 8,8′-diselanediylbis(3,5,7-trihydroxy-2-(3,4,5-trihydroxyphenyl)-4H-1-benzopyran-4-one)] | – | – | – | – | – | – | 9.08 mg/L | 25.2 mg/L | 12.4 mg/L | 19.1 mg/L | 27.9 mg/L | 7.72 mg/L | 22.9 mg/L (≈ 29 µM) | 0.807 ± 0.083 µM | 0.806 µM
